From patent publication US12213992B2, “Iron containing composition and use thereof” (RENAPHARMA AB, priority 2018, dated 2025)

How the values were obtained:
catalase = assay: Toxicity study: catalase levels; assay type: in vivo, CD1 mice; conditions: anaemic mice, 20 mM Fe, 100 μL, 10 days; ANOVA one-way test
Description: (§1) After the last dose, the mice were provided with water ad libitum for 18 hours before sacrifice and collection of tissues. Tissues were stored at −70° C. until subjection to various toxicological investigations. […] Tests were made with respect to the following parameters: • 1. Lipid peroxidation (MDA measurement) • 2. GSH levels • 3. Catalase levels • 4. Non-heme iron levels • 5. Plasma ferritin levels Methodology
(§2) The collection of the duodenum was achieved by taking the first 5 cm after the pylorus. The section was opened transversally, and the mucosa was removed using a glass slide.
The activity of catalase enzyme was detected by using a Catalase Kit (Arbor assay company, Catalogue number K033-H1). Mice tissues were rinsed in PBS to take out the excess of blood and weighed (100 mg of liver or 20 mg duodenal mucosa). The procedure of sample preparation and assay was performed according to manufacturing instructions. The tissue samples were homogenized in ice-cold assay medium with a glass homogenizer, centrifuged at 10,000×g for 15 min at 4 degrees. The supernatant was collected to continue with the assay. A standard with catalase-hydrogen peroxide enzyme was measured within 30 min after reconstitution. The produced colour reaction was read at 450 nm using a plate reader.

malondialdehyde (MDA) = assay: Toxicity study: lipid peroxidation (MDA measurement); assay type: in vivo, CD1 mice; conditions: anaemic mice, 20 mM Fe, 100 μL, 10 days; ANOVA one-way test
Description: as §1, §2
Lipid peroxidation was measured by the detection of the endpoint product malondialdehyde (MDA), using the MDA microplate assay kit from Cohesion Biosciences (catalog number CAK1011). Liver tissue (70 mg) or duodenal mucosa (20 mg) were weighed and homogenized in assay buffer according with instructions of the kit manufacturer. All the samples were kept in ice during the assay. The dye reagent (Thiobarbituric acid) was brought at room temperature 30 min before the assay performance. […] The protein concentration of the extracts was analysed with the Bradford assay protocol and the MDA values were normalized against protein content.

[1] = Non-heme iron levels in liver; assay type: in vivo, CD1 mice; conditions: anaemic mice, 20 mM Fe, 100 μL, 10 days
Description: as §1
Non-heme iron was assayed according to the method of Foy et al. (Analytical Biochem. 1967; 18:559-563) as modified by Simpson & Peters (Br J Nutr. 1990; 63:79-89). Liver tissue was washed in ice-cold PBS, weighted (70 mg), and homogenized (1:5 w:v) in 0.15M NaCl-HEPES buffer (pH 7.4) with a glass Dounce homogenizer. 100 μl of the resulted extracted was boiled with 200 μl of TCA-sodium pyrophosphate and boil for 10 min, centrifuged at 10,000 RPM and collected the supernatant, the boiled extraction and centrifugation was repeated twice. From the total supernatant collection, 200 μL was mixed with 100 μL 4 of 0.23M ascorbic acid, 80 µL of 10 mM ferrozine and 420 μL of 2.0 M sodium-buffer acetate (pH 4.8). All samples were measured at 562 nm against the blank and compare with standard values.

anaemic mice = assay: Haemoglobin levels in anaemic mice after treatment with oral iron (haemoglobin repletion study); assay type: in vivo, CD1 mice; conditions: 10 days of gavage (Fe; 21 mM, 100 μl)
Description: The procedure for this study was adopted from well established techniques (Kajarabille et al, Brit. J. Nutrition, 117 (2017) 767-774) (FIG. 8). There was a change of haemoglobin levels between the anaemic (12.8±2.4 g/dL) and normal animals (19.55±2.4 g/dL) (FIG. 9).
Male CD1 mice (3 weeks of age) were made Fe deficient by feeding a low-iron diet of 3-mg Fe/Kg diet based on the modified AIN-76A purified rodent diet (TD.80396; Harlan Teklad) for 3 weeks (i.e., until they were 6 weeks of age). Another group of mice were placed on a normal iron-sufficient diet (48-mg Fe/Kg diet) (TD.80394; Harlan Teklad) to serve as control. The diets were of identical composition except that the iron-sufficient diet contained iron added as ferric citrate. After this, blood was withdrawn from the tails to determine the initial Hb concentrations of the mice. The Fe-deficient mice were then divided into the treatment groups based on similar Hb concentrations. […] After the 10 days, the mice were weighed, anaesthetized, and blood samples were taken for Hb, serum iron, and serum ferritin determinations. The mice were then killed by anaesthesia followed by neck dislocation, and the spleen, duodenum, kidney, and liver samples were excised, snap frozen in liquid nitrogen, and stored at −70° C. until further analysis.

ferritin = assay: Plasma ferritin levels (mouse ELISA kit); assay type: in vivo, CD1 mice; conditions: anaemic mice, 20 mM Fe, 100 μL, 10 days
Description: as §1
In this assay, the ferritin present in plasma samples reacts with the anti-Ferritin antibodies which have been adsorbed to the surface of polystyrene microliter wells. The assay was performed with a kit provided by Abcam company (Catalogue number, ab157713 Ferritin, mouse ELISA kit). The plasma samples were diluted 1:40 with the assay diluent provided in the kit. The amount of enzyme bound in the complex was measured by the addition of a chromo-genic substrate, 3,3′,5,5′-tetramethylbenzidine (TMB). The colorimetric reaction was measured at 450 nm in a plate reader. The quantity of ferritin in the test sample was interpolated from the standard curve with known concentrations of ferritin.

reduced GSH = assay: Toxicity study: reduced GSH levels (ELISA); assay type: in vivo, CD1 mice; conditions: anaemic mice, 20 mM Fe, 100 μL, 10 days
Description: as §1, §2
The assay was performed according to manufacturer's instructions.

[2] = Tissue distribution of 59Fe; assay type: in vivo, mouse; conditions: iron deficient mice, 4 hours after oral gavage, compared with the other iron source
Description: Anaemic mice were generated using the method of Latunde-Dada et al, J. Nutr. 144 (2014) 1896-902. Mice (3 weeks old) were split into 4 groups (n=6), two groups were fed with normal iron diet (48 mg iron/Kg) and the other two with iron deficient diet (3 mg iron/kg) for 6 weeks. Before the experiment haemoglobin levels were measured to confirm the differences between the normal group and the iron deficient groups. The day before the treatment with ^59Fe labelled iron, all the mice were deprived of food overnight with water ad libitum. Normal (non anaemic) and iron deficient (anaemic) mice were gavaged with either 100 μl of the formulation of Example 4, or with ^59FeSO4-ascorbic acid (1:1) ([Fe]=21 mM). Four hours after the oral gavage the mice were sacrificed and tissues collected.
The tissues from the ^59Fe uptake study were used for an investigation of iron distribution (FIGS. 4-7). In the normal animals the majority of the iron is in the “carcase” (probably in blood and lymph).

**Q.** Which results are given for `O=S(=O)([O-])[O-].[Fe+2]` [FeSO4]?
**A.** catalase activity in duodenal mucosa (catalase): no statistical differences between the groups; catalase activity in liver (catalase): no statistical differences between the groups; concentration of malondialdehyde (MDA) in duodenal mucosa (malondialdehyde (MDA)): no statistical differences between the groups; concentration of malondialdehyde (MDA) in liver (malondialdehyde (MDA)): no statistical differences between the groups; non-heme iron levels in liver, Mean [1]: 0.3637 nmol/mg; haemoglobin levels (anaemic mice): increased the haemoglobin levels in anaemic mice to those of normal mice; plasma ferritin levels (ferritin): lower than that of normal mice; concentration of reduced GSH in liver (reduced GSH; ANOVA one-way test): no statistical differences between the groups; concentration of reduced GSH in duodenal mucosa (reduced GSH; P≤0.05, ANOVA one-way test): higher levels of GSH in duodenum in comparison with the untreated group; Fe distribution in the liver [2]: greater distribution of Fe in the liver
